Experimental data taken from article PMC8073005, “Antifungal Activity and DNA Topoisomerase Inhibition of Hydrolysable Tannins from Punica granatum L” (International Journal of Molecular Sciences, 2021).
Converted amounts (≈) assume the structure as drawn. Where two headings read alike, the source gives them in different places.

Legend:
[1] = tested on: Colletotrichum acutatum s.s. M146-2; experiment: MIC, micro-spectrophotometric growth assay (phytopathogens); format: cell-based, Colletotrichum acutatum sensu stricto; settings: for MIC: Colletotrichum acutatum s.s. M146-2, PDB, 24 °C, dark, imazalil at label dose, read-out: Minimum inhibitory concentration (MIC)
Candida albicans SC 5314 = experiment: MIC, broth microdilution (human pathogens); format: cell-based; settings: SC5314; Candida albicans SC 5314; SDB, 30 °C, 48 h; read-out: Minimum inhibitory concentration (MIC)
Candida albicans 1 = experiment: MIC, broth microdilution (human pathogens); format: cell-based; settings: Candida albicans 1; SDB, 30 °C, 48 h; read-out: Minimum inhibitory concentration (MIC)
Candida albicans 2 = experiment: MIC, broth microdilution (human pathogens); format: cell-based; settings: Candida albicans 2; SDB, 30 °C, 48 h; read-out: Minimum inhibitory concentration (MIC)
Candida albicans 40 = experiment: MIC, broth microdilution (human pathogens); format: cell-based; settings: Candida albicans 40; SDB, 30 °C, 48 h; read-out: Minimum inhibitory concentration (MIC)
Candida albicans 41 = experiment: MIC, broth microdilution (human pathogens); format: cell-based; settings: Candida albicans 41; SDB, 30 °C, 48 h; read-out: Minimum inhibitory concentration (MIC)
Candida parapsilosis 7 = experiment: MIC, broth microdilution (human pathogens); format: cell-based; settings: Lodderomyces parapsilosis; Candida parapsilosis 7; SDB, 30 °C, 48 h; read-out: Minimum inhibitory concentration (MIC)
Candida zeylanoides 33 = experiment: MIC, broth microdilution (human pathogens); format: cell-based; settings: Dujonia zeylanoides; Candida zeylanoides 33; SDB, 30 °C, 48 h; read-out: Minimum inhibitory concentration (MIC)
[2] = tested on: Aspergillus brasiliensis ATCC 16404; experiment: MIC, broth microdilution (human pathogens); format: cell-based; settings: ATCC16404; Aspergillus brasiliensis ATCC 16404; SDB, 30 °C, 48 h; read-out: Minimum inhibitory concentration (MIC)
Aspergillus candidus 3 = experiment: MIC, broth microdilution (human pathogens); format: cell-based; settings: Aspergillus candidus 3; SDB, 30 °C, 48 h; read-out: Minimum inhibitory concentration (MIC)
Aspergillus candidus 25 = experiment: MIC, broth microdilution (human pathogens); format: cell-based; settings: Aspergillus candidus 25; SDB, 30 °C, 48 h; read-out: Minimum inhibitory concentration (MIC)
[3] = tested on: Cryptococcus neoformans B 3501; experiment: MIC, broth microdilution (human pathogens); format: cell-based; settings: B3501; Cryptococcus neoformans B 3501; SDB, 30 °C, 48 h; read-out: Minimum inhibitory concentration (MIC)
Cryptococcus 67 = experiment: MIC, broth microdilution (human pathogens); format: cell-based; settings: Cryptococcus 67; SDB, 30 °C, 48 h; read-out: Minimum inhibitory concentration (MIC)
[4] = tested on: Cryptococcus var. grubii H99 serotype A; experiment: MIC, broth microdilution (human pathogens); format: cell-based; settings: Cryptococcus var. grubii H99 serotype A; SDB, 30 °C, 48 h; read-out: Minimum inhibitory concentration (MIC)
[5] = target: T1, topoisomerase I from Candida albicans (Candida albicans, UniProt Q00313); experiment: Topoisomerase I supercoiled DNA relaxation inhibition; format: biochemical; settings: mean ± SD; relaxation of supercoiled pBR322; concentration range 0.001–200 μM; read-out: IC50 Value Topoisomerase I
T1 sequence (Q00313 1-778): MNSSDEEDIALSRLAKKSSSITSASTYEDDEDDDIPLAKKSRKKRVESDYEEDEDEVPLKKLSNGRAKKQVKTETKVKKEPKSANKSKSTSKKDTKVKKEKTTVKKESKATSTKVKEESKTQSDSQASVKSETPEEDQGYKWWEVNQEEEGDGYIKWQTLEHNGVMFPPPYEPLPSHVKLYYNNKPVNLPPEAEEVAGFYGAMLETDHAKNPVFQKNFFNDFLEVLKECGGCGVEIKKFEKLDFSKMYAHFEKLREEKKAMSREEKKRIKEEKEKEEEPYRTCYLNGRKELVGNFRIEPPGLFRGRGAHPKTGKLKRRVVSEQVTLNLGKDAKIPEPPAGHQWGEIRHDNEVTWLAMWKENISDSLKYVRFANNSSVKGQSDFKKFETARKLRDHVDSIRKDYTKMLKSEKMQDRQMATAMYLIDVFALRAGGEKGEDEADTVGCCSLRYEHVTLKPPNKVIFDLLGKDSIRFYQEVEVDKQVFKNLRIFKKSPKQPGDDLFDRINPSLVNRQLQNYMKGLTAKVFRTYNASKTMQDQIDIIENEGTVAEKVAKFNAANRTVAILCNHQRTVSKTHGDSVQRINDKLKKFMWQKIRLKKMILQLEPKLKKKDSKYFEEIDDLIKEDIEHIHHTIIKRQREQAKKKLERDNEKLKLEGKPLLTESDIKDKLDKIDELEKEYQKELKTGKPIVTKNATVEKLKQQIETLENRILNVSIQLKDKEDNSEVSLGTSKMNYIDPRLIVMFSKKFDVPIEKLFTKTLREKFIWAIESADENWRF

[6] = tested on: other genera tested (other fungi strains); experiment: Agar Disk Diffusion Assay, other genera; format: cell-based
Protocol: The antifungal activity of pomegranate compounds was evaluated against 19 clinically isolated fungal strains, including nine belonging to Candida albicans species, two belonging to Aspergillus genus, one belonging to Cryptococcus genus, and one Saccharomyces cerevisiae. The C. albicans strains were isolated on CHROMID agar, Aspergillus and Cryptococcus genus were isolated on SDA-CAF and one Saccharomyces cerevisiae on SDA. All the isolates were confirmed by matrix-assisted laser desorption ionization (MALDI) time-of-flight mass spectrometry (TOF/MS). Strains from the American Type Culture Collection (ATCC) were included. All strains were maintained in SDB with 20% (w/v) glycerol at −80 °C until use and sub-cultured in SDA before each test.
The preliminary determination of the antifungal activity of the target compounds (punicalagin, punicalin, ellagic acid, and gallic acid) from pomegranate was carried out by means of the agar disk diffusion assay, according to the standard procedure of the Clinical and Laboratory Standards Institute, with slight modifications. Plates containing SDA were uniformly spread with 100 μL of 10^3 conidia/mL of each strain suspension. […] Disks containing fluconazole (25 μg), amphotericin B (25 μg) and DMSO (20 μL) were used as the positive and the negative control, respectively. The antifungal activity of pomegranate compounds was evaluated by measuring the diameter of the clear inhibition zone formed right around the disks after 48 h incubation at 30 ± 1 °C. The experiment was carried out in triplicate.

[7] = tested on: C. albicans 1 (clinically isolated strain); experiment: Time-kill curves; format: cell-based, Candida albicans; settings: compound at its MIC value, 0–96 h

SMILES | growth reduction ([1]; C. acutatum s.s., up to 24 h of incubation) [%] | MIC [1] [µM] | MIC ([1]; S.S.M1462) [µM] | MIC (Candida albicans SC 5314) [µM] | MIC (Candida albicans 1) [µM] | MIC (Candida albicans 2) [µM] | MIC (Candida albicans 40) [µM] | MIC (Candida albicans 41) [µM] | MIC (Candida parapsilosis 7) [µM] | MIC (Candida zeylanoides 33) [µM] | MIC [2] [µM] | MIC (Aspergillus candidus 3) [µM] | MIC (Aspergillus candidus 25) [µM] | MIC [3] [µM] | MIC (Cryptococcus 67) [µM] | MIC [4] [µM] | IC50 [5] [µM] | share of other fungi strains with inhibition zone from 11 to 20 mm ([6]; 100 µg) [%] | time-kill curve (susceptibility time-course) [7] | share of other strains with growth inhibition from 21 to 30 mm ([6]; 62.5 µg) [%]
O=C1OC[C@H]2OC(O)[C@H](O)[C@@H](O)[C@@H]2OC(=O)c2cc(O)c(O)c(O)c2-c2c(O)c(O)c3oc(=O)c4c(c(O)c(O)c5oc(=O)c2c3c54)-c2c1cc(O)c(O)c2O (mixture of isomers) [Punicalin, punicalin] | 83 | 255.6 | 256 | 127 | 3.8 | 3.8 | 127 | 127 | 3.8 | 127 | 1.9 | 127 | 127 | 1.9 | 127 | 127 | 14.7 ± 0.9 | 63 | after 60 h of incubation, punicalin becomes less effective than punicalagin | 
O=c1oc2c(O)c(O)cc3c(=O)oc4c(O)c(O)cc1c4c23 [Ellagic Acid, ellagic acid] |  | 165.4 (≈ 50 µg/mL) | 165 (≈ 50 µg/mL) | 2.5 (≈ 0.755 µg/mL) | 5 (≈ 1.51 µg/mL) | 2.5 (≈ 0.755 µg/mL) | 331 (≈ 100 µg/mL) | 331 (≈ 100 µg/mL) | 331 (≈ 100 µg/mL) | 331 (≈ 100 µg/mL) | 662 (≈ 200 µg/mL) | 662 (≈ 200 µg/mL) | 662 (≈ 200 µg/mL) | 331 (≈ 100 µg/mL) | 662 (≈ 200 µg/mL) | 662 (≈ 200 µg/mL) | 56.6 ± 1.2 |  | lowest activity compared with the other compounds | 100
